Reference: US5206252A, “Thiadiazolyl-amino derivatives of benzopyrans and indanes” (American Home Products Corporation, priority 1992, dated 1993)

Test system: Isolated Rat Bladder Strips
Assay: Inhibition of Contractions in Isolated Rat Bladder Strips (smooth muscle relaxing activity, 15 mM KCl-enhanced contractile activity)
Set-up: species or system Sprague-Dawley rats
Details: for inhibition at 30 µM: Rattus norvegicus, maximum percentage inhibition of contractile activity, read-out: Inhibition of Force (%) at (X) μM
Excerpt: The smooth muscle relaxing activity of the compounds of this invention was established in accordance with standard pharmaceutically accepted test procedures in representative compounds as follows:
Sprague-Dawley rats (150-200 g) are rendered unconscious by CO2 asphyxiation and then euthanized by cervical dislocation. The bladder is removed into warm (37 deg.C.) physiological salt solution (PSS) of the following composition (mM): NaCl, 118.4; KCl, 4.7; CaCl2, 2.5; […]; NaHCO3, 24.9; KH2 PO4, 1.2; glucose, 11.1; EDTA, 0.023; gassed with […]; pH 7.4. The bladder is opened and then cut into strips 1-2 mm in width and 7-10 mm in length. The strips are subsequently suspended in a 10 ml tissue bath under an initial resting tension of 1.5 g. The strips are held in place by two surgical clips one of which is attached to fixed hook while the other is attached to an isometric force transducer. […] The carbachol is then washed out and the tissue allowed to relax to its resting level of activity. Following an additional 30 minute period of recovery an additional 15 mM KCl are introduced into the tissue bath. This increase in KCl concentration results in a large increase in the amplitude of spontaneous contractions (and initiation of contractions in previously quiescent strips) superimposed upon a small increase in basal tone. Following stabilization of this enhanced level of contractile activity, incremental increases in the concentration of test compound or vehicle are introduced into the tissue bath. Contractile activity is measured for each compound or vehicle concentration during the last min of a 30 min challenge.
Isometric force developed by the bladder strips is measured using a […] to elicit 50% inhibition of pre-drug contractile activity (IC50 concentration) is calculated from this concentration-response curve. The maximum percentage inhibition of contractile activity evoked by a test compound is also recorded for concentrations of test compound<or equal to 30 uM.

SMILES | IC50 (0.5 h, isolated rat bladder strips, 15 mM KCl, last min of a 30 min challenge, read-out: IC50 (concentration required to elicit 50% inhibition of pre-drug contractile activity)) | inhibition at 30 µM
CNC1=NS(=O)(=O)N=C1N[C@@H]1c2cc(OC(F)(F)F)ccc2OC(C)(C)[C@H]1O [Example 3, (-)-(3S,4R)-2,2-Dimethyl-4-(4-methylamino-1,1-dioxo-[1,2,5]-thiadiazol-3-ylamino)-6-trifluoromethoxy-chroman-3-ol] | 4.8 µM | 95%
CC1(C)Oc2ccc(OC(F)(F)F)cc2[C@@H](NC2=NS(=O)(=O)N=C2N)[C@@H]1O [Example 2, (-)-(3S,4R)-4-(4-Amino-1,1-dioxo-[1,2,5]thiadiazol-3-ylamino)2,2-dimethyl-6-trifluoromethoxy-chroman-3-ol] |  | 33%
